{"source": "patent US6812025B2", "about": "“Two hybrid assay that detects HIV-1 reverse transcriptase dimerization” (priority 2000, dated 2004)", "key": {"p66/p51 heterodimer [1]": {"molecular_target": "T1, p66/p51 heterodimer (Human immunodeficiency virus type 1 group M subtype B, UniProt P12497)", "T1 construct": "The enzyme is a heterodimer of p66 and p51 subunits", "conditions": "cited from earlier work"}, "p66/p51 heterodimer [2]": {"molecular_target": "T1, p66/p51 heterodimer", "test": "Y2H system, preliminary tests of TSAO on heterodimerization", "type": "cell-based, HIV-1", "conditions": "data not shown", "method": "(§1) Transformation of yeast and the qualitative β-galactosidase (β-gal) colony lift assay were as published (19). Quantification of protein-protein interactions was determined using the β-gal liquid assay performed on permeabilized yeast grown from three independent transformants using orthonitrophenyl-β-D-galactopyranoside as substrate (19).\nTo date, there are no HIV-1 RT dimerization inhibitors being used in the clinic. Nevertheless, there are several reports of HIV-1 and HIV-2 RT dimerization inhibitors based on peptides representing the conserved tryptophan repeat region of RT (32, 37). […] However, the possibility that the drug is not taken up by yeast cannot be ruled out. The availability of a Y2H assay for RT dimerization will facilitate the screening for other such inhibitors of this process according to the methods set forth herein."}, "p66-His and GST-p51": {"molecular_target": "p66-His and GST-p51 (Human immunodeficiency virus type 1 group M subtype B, UniProt P04585)", "type": "binding, HIV-1", "conditions": "for enhancement of dimerization of GST-p51 and p66-His in vitro: bacterial lysates, 1-1000 fold molar excess of drug, overnight", "method": "Cells were induced and then lysed by the addition of 1 mg/ml of lysozyme to 1 ml of lysis buffer [50 mM sodium phosphate buffer (pH 7.8), 500 mM NaCl, 0.5% Nonidet P-40, 5 mM DTT, and 1 μg/ml each of pepstatin A, aprotinin and leupeptin] and clarified. Lysates were combined and incubated for 16 hrs at 4° C. The heterodimer was captured on Glutathione Sepharose 4B beads and unbound subunits were removed by washing with lysis buffer. Heterodimer bound to beads were resolved by SDS/PAGE. For quantification of RT activity, dimers were eluted from beads with 10 mM reduced glutathione in 50 mM Tris (pH 8.0). Samples were assayed for DNA polymerase activity on homopolymeric template-primers for various times, and the activity was determined from the initial slope of the linear phase of the time course."}, "[3]": {"molecular_target": "p66 and p51 subunits of the HIV-1 RT (Human immunodeficiency virus type 1 group M subtype B, UniProt P12497)", "test": "Y2H RT heterodimerization assay measuring effect of NNRTIs on b-gal activity (wild-type lexA87-66 + Gal4AD-51)", "type": "cell-based", "conditions": "for enhancement of b-gal activity (relative potency): yeast expressing lexA87-66 and Gal4AD-51, drug added to culture medium", "method": "as §1\nYeast and bacterial strains were as described previously (22). Transformation of yeast, the qualitative b-gal colony lift assay and the quantitative b-gal liquid assay were as previously described (22).\nCTY10-5d transformed constructs expressing p66 bait and p51 prey fusions were grown overnight to stationary phase in synthetic complete medium without histidine and leucine and containing 2% glucose (SC-His-Leu). […] Yeast were grown with aeration at 30° C. to OD600=0.5. The equivalent of 1 OD600 unit was pelleted for each treatment and subjected to a quantitative b-gal liquid assay.\nTo test the effects of NNRTIs on the association of the RT polypeptides we used a yeast genetic assay that measures RT heterodimerization (22). […] To test for the effects of the NNRTIs on this interaction, 10 drugs representing 7 different NNRTI classes were added to the culture medium during growth of the yeast and b-gal levels were determined."}, "HIV-1": {"tested_on": "HIV-1", "conditions": "cited from earlier work"}, "HIV-1 RT": {"molecular_target": "HIV-1 RT (Human immunodeficiency virus type 1 group M subtype B, UniProt P12497)", "test": "Exogenous RT assay (RT inhibitory activity)", "type": "biochemical", "conditions": "results not shown"}, "RT heterodimer": {"molecular_target": "T2, RT heterodimer (Human immunodeficiency virus type 1 group M subtype B, UniProt P12497)", "T2 construct": "The enzyme is a heterodimer of p66 and p51 subunits", "conditions": "cited from earlier work"}, "[4]": {"molecular_target": "T3, lexA87-66L234A and Gal4AD-HA-51L234A (Human immunodeficiency virus type 1 group M subtype B, UniProt P04585, L821A)", "T3 construct": "Yeast expressing p66 bait and p51 prey fusions containing the L234A mutation; expressed in transfected cells; host or cells: Saccharomyces cerevisiae CTY10-5d", "type": "cell-based, HIV-1", "conditions": "yeast grown in efavirenz (1.6 μM) or UC781 (16 μM), compared to no drug", "source_text": "Samples were resolved by SDS-PAGE. The leXA87-66 fusion protein was probed using monoclonal antibodies 7E5 which specifically detects p66 (31).\nHemagglutinin (HA) antibodies were used to immunoprecipitate the p51 prey and the presence of any bound p66 bait was then detected using anti-p66 specific antibodies. For coimmunoprecipitation of the p66 bait fusions, samples were divided into two with one part processed without added NNRTI while the other was maintained in drug at the same concentration used during growth of yeast."}, "lexA87 and Gal4AD": {"molecular_target": "T4, lexA87 and Gal4AD (UniProt P04386+P0A7C2)", "T4 construct": "expressed in transfected cells; host or cells: Saccharomyces cerevisiae (yeast reporter strain)", "T4 sequence (P0A7C2 1-87)": "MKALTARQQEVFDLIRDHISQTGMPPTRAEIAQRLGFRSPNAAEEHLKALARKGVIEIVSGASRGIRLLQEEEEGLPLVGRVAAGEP", "T4 sequence (P04386 768-881)": "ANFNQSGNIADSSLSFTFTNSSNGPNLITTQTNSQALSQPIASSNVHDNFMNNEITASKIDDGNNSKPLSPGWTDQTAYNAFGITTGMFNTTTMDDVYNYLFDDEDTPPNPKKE", "test": "Y2H specificity control, empty vectors pSH2-1 and pGADNOT", "type": "cell-based", "conditions": "serial dilutions, up to 15 μM of drug; data not shown", "source_text": "The specificity of the b-gal enhancement by NNRTIs was investigated. […]."}}}
{"compound": "2′, 5′-bis-O-(tert-butylidimethylsilyl)-3′-spiro-5″-4″-amino-1′, 2″-oxothiole-2″,2″-dioxide)]-b-D-pentofuranosyl [TSAO]", "values": [{"measurement": "destabilization of the p66/p51 heterodimer", "setting": "p66/p51 heterodimer [1]", "result": "destabilize the p66/p51 heterodimer"}, {"measurement": "effect on β-gal activity in the Y2H system", "setting": "p66/p51 heterodimer [2]", "result": "no inhibition of β-gal activity"}, {"measurement": "effect on heterodimerization in in vitro binding assays", "setting": "p66-His and GST-p51; preliminary tests, data not shown", "result": "reduce heterodimerization"}]}
{"compound": "COc1ccc2c(c1)N(C(=O)OC(C)C)[C@@H](CSC)C(=S)N2", "note": "[HBY 097]", "values": [{"measurement": "enhancement of b-gal activity (relative potency)", "setting": "[3]", "result": "most potent"}, {"measurement": "inhibition of HIV-1 replication in vitro", "setting": "HIV-1", "result": "extremely potent inhibitors of HIV-1 replication in vitro"}]}
{"compound": "CCn1c(=O)c(C)cn([C@@H]2O[C@H](CO[Si](C)(C)C(C)(C)C)C3(OS(=O)(=O)C=C3N)[C@H]2O[Si](C)(C)C(C)(C)C)c1=O", "note": "(stereo partly drawn) [TSAOe^3T]", "values": [{"measurement": "destabilization of the p66/p51 heterodimer", "setting": "p66/p51 heterodimer [1]", "result": "more modest destabilization only detectable in the presence of denaturants"}]}
{"compound": "Cc1occc1C(=S)Nc1ccc(Cl)c(/C=N/OC(C)(C)C)c1", "note": "[UC10]", "values": [{"measurement": "enhancement of dimerization of GST-p51 and p66-His in vitro", "setting": "p66-His and GST-p51", "result": "poor dimerization inducers"}]}
{"compound": "CC(C)OC(=O)c1cc(NC(=S)OC(C)C)ccc1Cl", "note": "[UC38]", "values": [{"measurement": "concentration of drug that mediates a 5-fold increase in b-gal activity (rank)", "setting": "[3]; results not shown", "result": "least active"}, {"measurement": "RT inhibitory activity (50% inhibitory concentration), rank", "setting": "HIV-1 RT", "result": "least active"}]}
{"compound": "CC(C)=CCOc1cc(NC(=S)c2ccoc2C)ccc1Cl", "note": "[UC781]", "values": [{"measurement": "enhancement of b-gal activity (relative potency)", "setting": "[3]", "result": "second most potent"}, {"measurement": "inhibition of HIV-1 replication in vitro", "setting": "HIV-1", "result": "extremely potent inhibitors of HIV-1 replication in vitro"}, {"measurement": "binding to the RT heterodimer", "setting": "RT heterodimer", "result": "bind very tightly"}, {"measurement": "dissociation rates (koff)", "setting": "RT heterodimer", "result": "very slow dissociation rates"}, {"measurement": "amount of p66 bait coimmunoprecipitated with p51 prey (heterodimer formation), L234A", "setting": "[4]", "result": "not for the L234A mutant"}, {"measurement": "enhancement of dimerization of GST-p51 and p66-His in vitro", "setting": "p66-His and GST-p51", "result": "poor dimerization inducers"}]}
{"compound": "CC(C)Nc1cccnc1N1CCN(C(=O)c2cc3cc(NS(C)(=O)=O)ccc3[nH]2)CC1", "note": "[delavirdine]", "values": [{"measurement": "enhancement of b-gal activity (relative potency)", "setting": "[3]", "result": "devoid of b-gal enhancing activity"}, {"measurement": "enhancement of dimerization of GST-p51 and p66-His in vitro", "setting": "p66-His and GST-p51", "result": "inactive in vitro"}]}
{"compound": "O=C1Nc2ccc(Cl)cc2[C@@](C#CC2CC2)(C(F)(F)F)O1", "note": "[efavirenz]", "values": [{"measurement": "b-gal activity with empty vectors", "setting": "lexA87 and Gal4AD", "result": "no increase in b-gal activity"}]}
